Laboratory results: patent US12195804B2, “Treatment of squamous cell carcinoma” (Board of Regents, The University of Texas System, priority 2018, dated 2025)

Tests used:
[1] = system: PJ34 cells; experiment: CellTiter-Glo viability, PJ34 parental and NOTCH1 KO; format: cell-based, human; conditions: 72 hours
Protocol: FIGS. 9A-9D: NOTCH1 knockout (KO) sensitizes two NOTCH1^WT head and neck squamous cell carcinoma (HNSCC) cell lines to PI3K/mTOR pathway inhibition in vitro. Two NOTCH1^WT HNSCC cell lines (PJ34 and UMSCC49 [UM49]), parental cell lines, and NOTCH1 KO cell lines were treated with PI3K/mTOR pathway inhibitors. FIG. 9A. The CellTiter-Glo assay was used to assess the viability of cells treated for 72 hours with the indicated concentrations of GSK2126458 (GSK212). FIG. 9B. Western blot analysis of apoptosis markers, NOTCH1, and NOTCH intracellular domain (NICD) was performed after treatment with the indicated concentrations of GSK212 for 48 hours. FIG. 9C. Apoptosis in cells treated with 50 nM GSK212 or 200 nM BEZ235 for 48 hours was measured using an Annexin V/propidium iodide assay. Values are the means±standard deviations of three independent experiments. *p<0.05, unpaired two-tailed Student t-test. FIG. 9D. […] Colony areas as percentages of the control were measured using ImageJ. […]
Cell viability assay. […] Inhibitory concentration (ICs) and area under the curve (AUC) values were calculated using the drexplorer R package with a best-fit dose-response model (Zumsteg et al., 2016). The combination indices were calculated using the Chou-Talalay method (Cal et al., 2017) in CalcuSyn (Biosoft, Cambridge, UK). […]

[2] = system: HN31 and UM22A orthotopic xenografts; experiment: Orthotopic tongue xenograft models of NOTCH1MUT HNSCC; format: in vivo, athymic nude mice
Protocol: (§1) FIGS. 8A-8D: PI3K/mTOR pathway inhibitors cause apoptosis and reduce tumor size in NOTCH1^MUT head and neck squamous cell carcinoma (HNSCC) in vivo. FIGS. 8A and 8B. The NOTCH1^MUT cell lines HN31 (FIG. 8A) and UMSCC22A (UM22A; FIG. 8B) were injected subcutaneously (SQ) into athymic nude mice. After tumors reached 150 mm^3, the mice were randomized to receive either vehicle control (2-hydroxypropyl-β-cyclodextrin) or 1 mg/kg GSK2126458 (GSK212) by oral gavage daily for 28 days. Tumor sizes were measured and tumor volumes were calculated at the indicated times, and the percent change in tumor volume at the end of therapy was calculated using the formula (final tumor volume−initial tumor volume/initial tumor volume)×100%. The percentages of TUNEL-positive cells were calculated from image quantification at 40× magnification. FIGS. 8C and 8D. HN31 (FIG. 8C) and UM22A (FIG. 8D) were implanted orthotopically (OT) into the anterior tongues of athymic nude mice. […] Tumor sizes were measured, and tumor volumes and percent changes in tumor volumes were calculated as above. […] The percentages of TUNEL-positive cells were calculated as described above. Data are means±standard deviations from 5 mice per group; p values were calculated using an unpaired t-test with the Welch correction. […]

[3] = system: HN31 and UMSCC22A subcutaneous xenografts; experiment: Subcutaneous xenograft models of NOTCH1MUT HNSCC; format: in vivo, athymic nude mice; conditions: 1 mg/kg oral gavage daily 28 days
Protocol: as §1

## COc1ncc(-c2ccc3nccc(-c4ccnnc4)c3c2)cc1NS(=O)(=O)c1ccc(F)cc1F [GSK2126458]
[1]; PJ34 NOTCH1 KO
  IC70: 24 nM
[1]; PJ34 parental
  IC70: 100 nM
[2]; 3 mg/kg oral gavage daily 28 days
  tumor size compared with vehicle: significantly reduced tumor size
[2]; 3 mg/kg oral gavage, end of treatment
  apoptosis in tumors (TUNEL staining): underwent apoptosis
[3]
  apoptosis in tumors (TUNEL staining): significant apoptosis
  tumor volume: regressed
